In patent US8901276B2, “Peptide reagents and methods for detection of colon dysplasia” (The Regents of the University of Michigan, priority 2010, dated 2014):

Tests used:
[1] = test system: colonic adenomas; experiment: In vivo imaging with non-scanning endoscope, FITC-labeled peptides; set-up: species or system CPC; Apc mice; settings: Non-scanning Endoscopy Results; FITC label; mean ± SD
Description: Specific binding of the candidate peptides to primary dysplastic colonic epithelial cells were validated on flow cytometry ex vivo and with small animal endoscopy in vivo using FITC-labeled peptides using a non-scanning white light endoscope.

[2] = test system: Hs738.St/Int. cells; experiment: Fluorescence microscopy of FITC-labeled peptides; assay type: cell-based, human; settings: 10 μM, 15 min
Description: Preferential binding of the FITC-Peptide 2 and FITC-Control peptide 2 to target and non-target cells was also validated via fluorescence microscopy. HT29 and Hs738.St/Int. cells were grown in 22 mm2 cover slips with ˜80% confluence. Blocking of non-specific binding was performed by adding PBS/0.5% BSA for 30 min. The cells were then incubated with 10 μM of FITC-Peptide 2 or FITC-Control peptide 2 either at 4 or 37° C. for 15 min followed by 1 μg/mL Hoechst dye (Sigma Aldrich, St. Louis, Mo.) along with the peptide. The cells were washed with PBS for 3 times and fixed with 4% paraformaldehyde at room temperature for 10 min. After fixation, the cells were washed again with PBS (1×) and mounted with ProLong® Gold reagent (Invitrogen, Carlsbad, Calif.) and the fluorescence images were acquired with Leica Confocal system. (Leica Microsystems GMBH, Wetzlar, 35578 Germany)
Preferential binding of the FITC-labeled candidate and control peptides to the target and non-target cells was further validated via fluorescence microscopy. HT29 and Hs738.St/Int. cells were grown on cover slips to ˜80% confluence. Blocking of non-specific binding was performed by adding PBS/0.5% BSA for 30 min. The cells were then incubated with 10 μM of 5-FITC-labeled candidate or control peptide at either 4 or 37° C. for 15 min followed by staining with 1 μg/mL Hoechst dye (Sigma Aldrich, St. Louis, Mo.) along with the peptide. The cells were washed 3× with PBS and fixed with 4% paraformaldehyde at RT for 10 min. After fixation, the cells were washed again with PBS and mounted with ProLong Gold reagent (Invitrogen, Carlsbad, Calif.) and fluorescence images were collected with confocal microscopy (Leica TCS SP5 Microsystems, Bannockburn, Ill.).

[3] = test system: human EMR specimens (normal mucosa, polypoid and non-polypoid dysplasia); experiment: Stereomicroscopic validation on EMR specimens; settings: for fluorescence intensity on stereomicroscopy: 10 μmol/L, 5 min, mean±SEM
Description: Binding of the candidate or control peptide to the dysplasia on freshly resected human specimens via endoscopic mucosal resection (EMR) was validated on fluorescence stereomicroscopy. Patients with previously diagnosed polypoid and non-polypoid dysplasia who were referred for EMR were recruited. Institutional review board approval was obtained from the VA Palo Alto Health Care System, and informed consent was acquired. After resection, the specimens were rinsed in PBS 3× to remove debris and mucous. An autofluorescence image was acquired before incubating with the peptide. Then, specimens were incubated with either the FITC-labeled candidate or control peptide at a concentration of 10 μmol/L for 5 min. The unbound peptide was rinsed off with PBS 3×. The mucosal surface of the specimen was oriented face up, and a dab of ink was applied to the upper border as a landmark to register the white light and fluorescence images with histology. A white light image was collected from the specimen with and without an overlying transparent grid that contains squares with dimensions of 1×1 mm^2. Fluorescence images were collected at 500 milliseconds per frame (with the overlying grid removed) using a stereomicroscope (Olympus SZX-16 equipped with Rolera camera; Olympus Corp, Tokyo, Japan) using 477 to 500 nm excitation and 500 to 630 nm emission. A correction to the fluorescence images was performed because the intensity at the center of the image is greater than that in the periphery due to differences in distance. A fluorescence image was collected from a solution of 10 μM FITC in a plate to provide a uniform target for calibration, allowing for quantitative analysis over the entire field of view. After the fluorescence intensities were corrected, lines along the length of the specimen spaced by 2-mm intervals in each image were identified using the grid from the white light image. The mean intensity from each 1×1 mm^2 interval along this length of tissue was calculated using Matlab and compared with histology. Histopathologic interpretation was performed by a gastrointestinal pathologist (HA) who classified the specimens stained with H&E as normal colonic mucosa, dysplasia, or adenocarcinoma. The histopathologic evaluation of the EMR specimens was conducted at VA Palo Alto Health Care System (AM) and classified as either dysplasia or normal mucosa.

[4] = test system: human colonic mucosa sections (normal, dysplasia, adenocarcinoma); experiment: Peptide immunohistochemistry on frozen sections (Example 11); settings: for target-to-background (T/B) ratio KCCFPAQ peptide vs. control peptide: frozen sections; for fluorescence intensity on immunohistochemistry: mean±SEM
Description: All specimens were obtained with approval from the University of Michigan Institutional Review Board (IRB). Freshly resected specimens of human colonic mucosa were frozen in OCT and sectioned with 10 μm thickness. The sections were then air dried, washed with PBS, and incubated with the FITC-labeled peptides at a concentration of 10 μM for 15 min at RT. The sections were washed 3× for 1 min in PBS and fixed with 4% paraformaldehyde for 10 min. After fixation, the sections were washed again and mounted with ProLong Gold reagent with DAPI (Invitrogen, Carlsbad, Calif.). The sections were imaged under a confocal microscope (Leica TCS SP5 Microsystems, Bannockburn, Ill.). Adjacent sections were sent for routine histology. The intensity for each image was calculated using Matlab (Mathworks, Natick, Mass.).

KCCFPAQ-FITC [FITC-Peptide 2, KCCFPAQ with FITC at the C-terminus on the side chain of lysine residue via GGGSK linker]
Average T/B [1]: 1.69 ± 0.70 | binding to Hs738.St/Int. cells on microscopy [2]: not the surface of the Hs738.St/Int cells | binding to Hs738.St/Int. cells on microscopy ([2]; listed as KCCFPAQ peptide): No binding | T/B flat adenoma to adjacent normal mucosa [3]: ~2.0 fold | T/B polypoid adenoma to adjacent normal mucosa [3]: 1.8 | fluorescence intensity on stereomicroscopy ([3]; non-polypoid dysplasia): 85.1±19.2 AU | fluorescence intensity on stereomicroscopy ([3]; normal mucosa): 43.5±10.7 AU | fluorescence intensity on stereomicroscopy ([3]; polypoid dysplasia): 78.6±12.8 AU | binding to adenocarcinoma compared to normal mucosa [4]: 3.1 times | binding to adenocarcinoma relative to dysplasia [4]: 1.5 fold | binding to normal colonic mucosa ([4]; 10 μM, 15 min, RT): no binding | staining of dysplasia and adenocarcinoma ([4]; 10 μM, 15 min, RT): consistently stains | target-to-background (T/B) ratio KCCFPAQ peptide vs. control peptide ([4]; adenocarcinoma): 3.6 | fluorescence intensity on immunohistochemistry ([4]; adenocarcinoma): 31.5±6.0 AU | target-to-background (T/B) ratio KCCFPAQ peptide vs. control peptide ([4]; dysplasia): 3.1 | fluorescence intensity on immunohistochemistry ([4]; dysplasia): 21.1±3.8 AU | target-to-background (T/B) ratio KCCFPAQ peptide vs. control peptide ([4]; normal mucosa): 2.0 | fluorescence intensity on immunohistochemistry ([4]; normal mucosa): 10.1±3.6 AU
